Earlier results on 1 substance are cited in patent publication US6514992B1, “Caspases and apoptosis” (SmithKline Beecham Corporation, priority 1998, dated 2003).

This series deals with osteoclasts of murine bone marrow cultures. To be noted: murine bone marrow cultures grown for 6 days in vitro.

“TGF-β1: cytokine cited as inducing apoptosis in osteoclasts of murine bone marrow cultures”: the “apoptosis induced in osteoclasts” value was “approx. 30%”.
